The values below come from patent publication US20130059324A1, “SYSTEMS AND METHODS FOR MECHANICALLY STRAINED CELL CULTURE” (THE UNIVERSITY OF KANSAS, priority 2010, published 2013).

Series [1] concerns H358 cells. Nature of the series: Prototype 96-well plate, MTS assay with and without mechanical forces. In kind it is cell-based, human. The conditions noted are these: drug at IC90, 24 hours, 490 nm. Here is the method:
(§1) The prototype plate was read using the Biotek plate reader at the wavelength of 490 nm until the media only wells absorbance reached 1.0. For the +M group plate, 30 ul of MTS was added to the assigned wells and kept in the incubator for the same amount of time that required for the −M group to develop and read at the same wavelength.
In general terms: Formazan colour is commonly taken as a measure of viable cells.

Series [2] concerns A549 cells. Described as above. The conditions noted are these: A549, drug at IC90, 24 hours, 490 nm. In kind it is cell-based, human. Here is the method:
as §1

In series [3] the test system is H358 cells. Description: Prototype 96-well plate, viable cell count (Vi-Cell) with and without mechanical forces. The series is classed as cell-based, human.
Method: (§2) After allowing the cells to adhere to the flexible membrane of the 96 well plate for 24 hours, the loading pins and the system described in FIG. 7 to implement mechanical strain were used to deliver 20% maximum strain for 2 seconds to the plate assigned for mechanical forces (+M Group), followed by 2 seconds of rest (15 cycles per minute with an average strain of 10% per cycle) in keeping with a normal human respiration.
In a parallel experiments, the cells were treated with anti-tumor drug after 72 hours of initial seeding (after 48 hours of mechanical stretching). The drug was dissolved in dimethyl sulfoxide (DMSO) at stock concentration and added to the respective media. An aliquot of 50 μl of drug stock solution was added to the well containing 100 μl of media (a 1:3 dilution) in a drug plate to get the desired IC90 concentration of the drug (Table 1). The IC90 concentrations of the drugs were then added to prototype plate.
(§3) The +M Group was subjected to continuous mechanical stretching while the −M Group plate was placed in the same incubator for additional 24 hours.
In order to quantify viability, 6 wells per treatment group for ViCell counter and 6 wells per condition for MTS were assigned to determine the cell viability. Using Vi-Cell counter, assigned wells were filled with extra 210 μl of media to keep the volume constant in all the wells.
Series [4] concerns cells in a static monolayer culture. Description: IC90 in static monolayer culture (tested concentration). The series is classed as cell-based. The conditions noted are these: concentration that inhibits the growth of 90% of the cells in a static monolayer culture. Here is the method:
Table 1 includes a list of investigated chemotherapeutic drugs, their mechanisms of action and the tested concentrations.
After 72 hours of initial seeding, one of the five drugs was added to Treatments 3 and 6 of each cell line. […] The IC90, concentration of the drug that inhibits the growth of 90% of the cells in a static monolayer culture, was used to assure a significant inhibition in the absence of simulated forces. To insure comparability, an aliquot of 1 ml of media without the drug was added to each well in Treatments 2 and 5. After adding the drug or 1 ml of media, the plates from Treatments 5 and 6 were placed back on the baseplate and subjected to the same force profile as before for the remaining 72 hours. Plates from Treatments 2 and 3 (without forces) were placed in the same incubator for the remaining 72 hours.

The subject of series [5] is A549 cells. Description: Drug exposure with or without simulated forces, 6-well Bioflex plates, live cell count and exponential growth model. In kind it is cell-based, human. Here is the method: Treatments 1, 2 and 3 served as unstretched controls for Treatments 4, 5 and 6, respectively. For each cell line and drug, all treatments were independently repeated at least 3 times on different days, with 3 replicates per Treatments 1 and 4 (n=9) and 5 replicates per all other treatments (n=15).
Cells were passaged in 75 cm2 culture flasks at 37° C. in 5% CO2, and trypsinized using TryplE™ Express (Gibco) containing phenol red.
Cells were plated in 6-well Bioflex® plates (Flexcell® International Corporation, Hillsborough, N.C.). Each well of the plate has a flexible elastic membrane coated with a thin layer of type I collagen. Type I collagen was chosen since it more accurately represents the physiology of lung tumor cells in vivo. […] In Treatments 1, 2 and 3, NCI-H358 and A549 cells were plated at a density of 100,000 and 20,000 cells/well in 2 ml of corresponding media, respectively. For treatments involving simulated forces (Treatments 4-6), NCI-H358 and A549 cells were plated at a density of 170,000 and 35,000 cells/well, respectively.
After allowing the cells to adhere to the membrane for 24 hours, the plates assigned for simulated forces were stretched using the FX-4000 Tension plus unit (Flexcell® International Corporation, Hillsborough, N.C.). The Flexcell unit was configured to deliver an alternating positive and negative pressure beneath the cell culture surfaces. Negative pressure pulls the culture surface down over a stationary Delrin post on the baseplate, delivering a uniform biaxial strain to the cells, and subsequent application of positive pressure releases this distension (FIGS. 9A and 9B.) In this manner, the alternating positive and negative pressure simulates forces experienced during respiration. Culture plates experiencing forces were fitted with rubber gaskets and placed on circular loading stations in the baseplate.
After 72 hours of initial seeding, one of the five drugs was added to Treatments 3 and 6 of each cell line. […] To insure comparability, an aliquot of 1 ml of media without the drug was added to each well in Treatments 2 and 5. After adding the drug or 1 ml of media, the plates from Treatments 5 and 6 were placed back on the baseplate and subjected to the same force profile as before for the remaining 72 hours. Plates from Treatments 2 and 3 (without forces) were placed in the same incubator for the remaining 72 hours.
Cells were trypsinized and counted at the end of day 3 in Treatments 1 and 4, and at the end of day 6 in the other treatments, using a Beckman Coulter Vi-Cell Analyzer (Beckman Coulter, Fullerton, Calif.). To examine changes in morphology, microphotographs of A549 and NCI-H358 cells were taken at the end of Treatments 1, 2, 4 and 5 using an Olympus inverted microscope and a 10× objective.
The standard exponential cell growth model (28) was used to describe the changes in live cell counts after each treatment. According to this model, the cell count (e.g., N) at a particular time (e.g., t), is given by the equation:
N* is the initial cell count and λ is the cell growth rate. For each cell line, the following cell growth rates were estimated: λ=growth rate in the absence of forces and drugs, λd=growth rate in the presence of a particular drug but no forces, λXf=growth rate in the presence of forces but no drugs; and λfd=growth rate in the presence of forces and a particular drug. The growth rates λd and λfd were estimated for each tested drug. Using these growth rates and the exponential growth model, the final cell counts were mathematically modeled for each treatment under various conditions (FIG. 8). For each cell line, a linear regression model that combined the information from the 5 investigated drugs was built using Stata Statistical Software (StataCorp LP, Texas) after log-transforming the six equations listed in FIG. 8. The regression coefficients in the model were the growth rates.

In series [6] the test system is H358 cells grown as 3D tissues. Nature of the series: 3D culture antiproliferative MTS assay in collagen with and without mechanical forces. The series is classed as cell-based. The conditions noted are these: Homo sapiens, NCI-H358, 72 h, H358 3D in collagen, 72 hours exposure. Here is the method: Effects of mechanical forces on engineered 3-dimensional tumor tissues were also studied, An experiment was conducted with paclitaxel, which was tested in the presence and absence of mechanical forces in H358 cells (bronchioalveolar carcinoma) grown as 3D tissues in type 1 rat tail collagen scaffold. The cells were seeded at a density of 4×10^6 cells per well in 6-well Bioflex collagen I plates and cultured in PRMI 1640 medium The forces that were tested were configured to mimic normal respiration. After 24 hours of seeding, cells were stretched from 0% to a maximum of 20% elongation for 2 seconds followed by 2 seconds of rest continuously for 4 days. Control group included cells that were plated in collagen at the same densities and incubated for 5 days without mechanical forces. […] As a note, a computing system similar to FIG. 6 can be used to control an experiment system in order to provide predetermined cycles of mechanical strain and relaxation.
Following 24 hours of stetching, paclitaxel was added to H358 cells in ten 1:3 dilutions with starting concentrations 100 μM. […] Dose response curves were plotted and corresponding IC50 values (concentration of the drug at which 50% of the cells are inhibited) were calculated for stretched and un-stretched conditions using Graphpad Prism software.

The subject of series [7] is A549 cells. Nature of the series: Prototype 96-well plate, viable cell count (Vi-Cell) with and without mechanical forces. The following applies: drug at IC90, 24 hours.
Method: as §2
In a parallel experiments, the cells were treated with anti-tumor drug after 72 hours of initial seeding (after 48 hours of mechanical stretching). The drug was dissolved in dimethyl sulfoxide (DMSO) at stock concentration and added to the respective media. […] The IC90 concentrations of the drugs were then added to prototype plate.
as §3
In order to quantify viability, 6 wells per treatment group for ViCell counter and 6 wells per condition for MTS were assigned to determine the cell viability. Using Vi-Cell counter, assigned wells were filled with extra 210 μl of media to keep the volume constant in all the wells. Media from the assigned wells were transferred into a 24-well plate, and the well location was recorded. About 50 μl of trypLE was added to each well and allowed to trypsinize for a maximum of ten minutes. A small amount of media from the 24-well plate was transferred back into corresponding wells of the prototype plate to collect detached cells.
Media and cells were transferred back into the corresponding well of the 24-well plate. All wells were brought to a final volume of 1.25 mL with PBS and mixed well. About 1 ml of this cell suspension was transferred to ViCell counter to determine the number of viable cells.

Molecules are shown by their SMILES.

The IC90 is the concentration needed for an effect of 90%. A lower IC90 goes with greater potency. As a reminder, the IC50 is the midpoint of a concentration-inhibition curve.

For the compound `CC(=O)O[C@H]1C(=O)[C@@]2(C)[C@H]([C@H](OC(=O)c3ccccc3)[C@]3(O)C[C@H](OC(=O)[C@H](O)[C@@H](NC(=O)c4ccccc4)c4ccccc4)C(C)=C1C3(C)C)[C@]1(OC(C)=O)CO[C@@H]1C[C@@H]2O` [Paclitaxel], the “MTS absorbance after 24 hours of drug exposure, With forces (Ef)” value was found to be 0.345 in series [1] (mechanical forces) and 0.293 in series [2] (mechanical forces). Moreover, the “MTS absorbance after 24 hours of drug exposure, Without forces (E)” value in series [1] (no forces) is 0.522; in series [2] (no forces), 0.567. Moreover, the “Effect of mechanical forces on viable cell count / cytotoxicity” value in series [3] (24 hours drug exposure, prototype 96-well plate) is reported as “remained unaffected”. Moreover, the “Viable Cell Count after 24 hours of drug exposure, With forces (Ef)” value in series [3] (drug at IC90, 24 hours, mechanical forces) worked out at 9687.5; in series [7] (mechanical forces) it was 11875.0. Besides, the “Viable Cell Count after 24 hours of drug exposure, Without forces (E)” value was 21250.0 in series [3] (drug at IC90, 24 hours, no forces) and 33125.0 in series [7] (no forces). In series [4], this compound had an IC90 of 50 nM. Moreover, in series [5] (drug at IC90 for 3 days, 20% maximum strain, 15 cycles/minute), the “Growth Rates, With forces” value is listed as −0.038 per day. In series [5] (drug at IC90 for 3 days, no forces, negative = reduction in viable cell count), the “Growth Rates, Without forces” value is 0.133 per day. In addition, the “Effectiveness of The Drug, Without forces (E)” value in series [5] (percentage reduction in live cell counts, 3-day drug exposure at IC90, no forces) is 76.9%. Further, the “Effectiveness of The Drug, With forces (Ef)” value in series [5] (percentage reduction in live cell counts, 3-day drug exposure at IC90, simulated forces) is 57.5%. Also, the IC50 in series [6] (absence of mechanical stress) came to 22.6 µM; in series [6] (cells experiencing mechanical stress (0-20% elongation)) it was 0.2 µM.
